Source: patent publication US20260078099A1, “COMPOUND, PREPARATION METHOD THEREOF, AND LIPID NANOPARTICLE AND PHARMACEUTICAL COMPOSITION” (priority 2023, published 2026)

How the values were obtained:
[1] = tested on: mice; assay: Bioluminescent study, intramuscular injection of F-luc mRNA LNPs; type: in vivo; conditions: F-luc luminescence flux normalized to MC3; 0.25 mg/kg intramuscular, mice n=3, 6-hour time point
Procedure, shortened: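 Mice (n=3) received LNP-formulated F-luc mRNA at 0.25 mg/kg intramuscularly. Bioluminescence was read 6 h after dosing. Test LNPs were made with an MC3 formulation, and PBS served as control in some groups.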

[2] = LNP encapsulation efficiency (Quant-it Ribogreen); type: physicochemical; conditions: mRNA LNP, cationic lipid/DSPC/cholesterol/PEG-lipid 50:10:38.5:1.5
[3] = LNP size and PDI by dynamic light scattering; type: physicochemical; conditions: for PDI / Size (nm): mRNA LNP, cationic lipid/DSPC/cholesterol/PEG-lipid 50:10:38.5:1.5
[4] = Dose-response study, Luc mRNA intramuscular; type: in vivo; conditions: mRNA doses 0.25, 0.05 and 0.01 mg/kg
Protocol: Samples containing firefly luciferase (Luc) mRNA were administered intramuscularly to evaluate protein expression. […] As the dose decreased, the injection site's expression proportion increased. A26, A47, and B38 maintained injection site flux levels of 0.3-3×10^10 (p/s) across all doses.

[5] = LNP zeta potential; type: physicochemical; conditions: mRNA LNP

Structure (SMILES)	Encapsulation efficiency (%) [2] [%]	PDI [3]	Size (nm) [3] [nm]	particle sizes by dynamic light scattering (FIG. 22) ([3]; mRNA-loaded LNPs)	Zeta potential (mV) [5] [mV]	Relative Total flux [1]	dose-response of Luc expression [4]
CCCCCCCCC(CCCCCC)COC(=O)CCCCCCCCCNC(=O)C(CCCCCCCC)N(CCCN(C)C)C(=O)CCCCCCCCCC(=O)OCC(CCCCCC)CCCCCCCC (stereo not drawn) [Compound A14]	94.31	0.228	89.33	–	4.02	C (C: ≥0.1 and <1)	–
CCCCCCCC(C(=O)NCCCCCCCCCC(=O)OC(CCCCCC)CCCCCC)N(CCN(CCO)C1CCC1)C(=O)CCCCCCCCCC(=O)OC(CCCCCC)CCCCCC (stereo not drawn) [Compound B11]	81.83	0.205	70.27	–	−9.69	A (A: ≥2)	–
CCCCCCC(CCCCCC)OC(=O)CCCCCCCCCNC(=O)C(CCCCCCCCCC(=O)OC(CCCCCC)CCCCCC)N(CCCN(CC)CC)C(=O)CCCN(CC)CC (stereo not drawn) [Compound E7]	92.11	0.13	95.52	–	−16.13	C (C: ≥0.1 and <1)	–
CCCCCCCCC(C(=O)NCCCCCCCCCC(=O)OCCCCCC)N(CCCN(CCO)CCO)C(=O)CCCCCCCCCC(=O)OC(CCCCCC)CCCCCC (stereo not drawn) [Compound B3]	79.83	0.306	85.75	–	−6.91	A (A: ≥2)	–
CCCCCCCC(C(=O)NCCCCCCCCCC(=O)OC(CCCCCC)CCCCCC)N(CCCN(CCO)C1CCC1)C(=O)CCCCCCCCCC(=O)OC(CCCCCC)CCCCCC (stereo not drawn) [Compound B10]	46.91	0.166	66.9	–	2.18	A (A: ≥2)	–
CCCCCCC(CCCCCC)OC(=O)CCCCCCCCCNC(=O)C(CCCCCCCCCC(=O)OC(CCCCCC)CCCCCC)N(CCCN(C)CCO)C(=O)CCCN(C)CCO (stereo not drawn) [Compound E5]	93.90	0.183	84.36	–	−19.40	B (B: ≥1 and <2)	–
CCCCCCCC(C(=O)NCCCCCCCCCC(=O)OC(CCCCCC)CCCCCC)N(CCCN1CCN(CCO)CC1)C(=O)CCCCCCCCCC(=O)OC(CCCCCC)CCCCCC (stereo not drawn) [Compound B17]	92.99	0.185	64.2	–	14.20	A (A: ≥2)	–

Now from value to compound, other results behind:

Encapsulation efficiency (%) [2] [%]	PDI [3]	Size (nm) [3] [nm]	particle sizes by dynamic light scattering (FIG. 22) ([3]; mRNA-loaded LNPs)	Zeta potential (mV) [5] [mV]	Structure (SMILES)	Relative Total flux [1]	dose-response of Luc expression [4]
94.09	0.11	94.21	approximately 100 nm	2.30	CCCCCCCCNC(=O)C(CCCCCCCC)N(CCCN(C)C)C(=O)CCCCCCC(=O)OC(CCCCCCCC)CCCCCCCC (stereo not drawn) [Compound A26]	A (A: ≥2)	clear dose-response gradient
92.48	0.17	79.52	–	−1.82	CCCCCCCCNC(=O)C(CCCCCCCC)N(CCCN1CCCC1)C(=O)CCCCCCC(=O)OC(CCCCCCCC)CCCCCCCC (stereo not drawn) [Compound A36]	A (A: ≥2)	–
95.00	0.163	55.64	–	6.08	CCCCCCCC(C(=O)NCCCCCCCCCC(=O)OC(CCCCCC)CCCCCC)N(CCCN(CCO)CCO)C(=O)CCCCCCCCCC(=O)OCC1CC=CCC1 (stereo not drawn) [Compound B5]	A (A: ≥2)	–
89.13	0.093	78.64	–	−0.20	CCCCCCCC(C(=O)NCCCCCCCCCC(=O)OC(CCCCCC)CCCCCC)N(CCCN(C)C)C(=O)CCCCCCCCCC(=O)OCC1CC=CCC1 (stereo not drawn) [Compound A19]	D (D: <0.1.)	–
93.54	0.17	75.94	–	−0.97	CCCCCC/C=C\CCCCCCCC(C(=O)NCCCCCC)N(CCCN(C)C)C(=O)CCCCCCC(=O)OC(CCCCCCCC)CCCCCCCC (stereo not drawn) [Compound A40]	C (C: ≥0.1 and <1)	–
93.95	0.32	119.93	–	7.87	CCCCCCCCNC(=O)C(CCCCCCCC)N(CCN(CCO)CCO)C(=O)CCCCCCC(=O)OC(CCCCCCCC)CCCCCCCC (stereo not drawn) [Compound B32]	A (A: ≥2)	–
96.54	0.246	81.59	–	−6.48	CCCCCCC(CCCCCC)OC(=O)CCCCCCCCCNC(=O)C(CCCCCCCCCC(=O)OC(CCCCCC)CCCCCC)N(CCCN(C)C)C(=O)CCCN(C)C (stereo not drawn) [Compound E6]	C (C: ≥0.1 and <1)	–
